Test results from paper PMC12381739, “Druglike Molecular Degraders of the Oncogenic RNA-Binding Protein HuR” (JACS Au, 2025).

What was measured:
Bcl2 and FOXQ1 mRNA = assay: mRNA RT-qPCR of Bcl2 and FOXQ1 in MCF-7 cells; type: cell-based, human; conditions: MCF-7, concentrations ranging from 1 nM to 100 nM
Experimental: MCF-7 cells were seeded into 12-well plates (∼150,000 cells per well) at 60–70% confluency incubated for 12 h. The cells were then treated with different synthesized compounds at the indicated concentrations or with vehicle control for 24 and 48 h. After treatment, total RNA was extracted using the QuickRNA Miniprep Kit (Zymo Research) according to the manufacturer’s protocol, including DNase I treatment. Reverse transcription was performed on 1 μg of total RNA using the qScript cDNA Synthesis Kit (Quantabio) following the manufacturer’s instructions. Approximately 30 ng of cDNA were used for each qPCR reaction, which was carried out using the Luna Universal qPCR Master Mix (New England BioLabs, cat# E3010G) on a CFX Opus 384 Real-Time PCR System. Relative expression levels of Bcl-2 and FOXQ1 were calculated by normalizing to GAPDH expression using the ΔΔCt method.

Bcl2 [1] = assay: Bcl2 protein expression by western blot in MCF-7 cells; type: cell-based, human; conditions: MCF-7, 10 nM, 24 h
Experimental: (§1) The hook effect was again observed in Bcl2 protein expression, underscoring the functional link between HuR and Bcl2.
(§2) MDA-MB-231 and MCF-7 cells were seeded in 6-well plates at approximately 60% confluency in complete growth medium and treated with synthesized compounds at the indicated concentrations or with vehicle for 24 h. Total protein was extracted using RIPA cell lysis buffer (BioPrep) containing a protease inhibitor, and protein concentration was measured using the BCA protein assay (Sigma-Aldrich) according to the manufacturer’s protocol. Approximately 30 μg of total protein were resolved on a 12% SDS-acrylamide gel and transferred to a PVDF membrane (Immobilon FL transfer membrane; Merck). The membrane was washed with 1× Tris-buffered saline (TBS) containing 0.1% (v/v) Tween-20 (TBST; Tris-base, pH 7.6, NaCl, and Tween-20) and blocked in 1× TBST containing 5% (w/v) BSA for 2 h at room temperature. […] The fold change in the expression of the target proteins (HuR or Bcl2) was calculated by normalizing the band intensity to the Vinculin band intensity using ImageJ.

Bcl2 [2] = assay: Bcl2 protein expression by western blot in MDA-MB-231 cells; type: cell-based, human; conditions: MDA-MB-231, 10 nM, 24 h
Experimental: as §1, §2

MCF-7 cells [3] = assay: Crystal violet viability assay in MCF-7 cells; type: cell-based, human; conditions: MCF-7, 10 nM and 10 μM, 48 h
Excerpt: (§3) To elucidate the decrease in cell viability observed, we evaluated the potential increase in apoptosis using the […] Caspase-Glo 3/7 assay system. Upon cell lysis, active caspases cleave a luminogenic substrate, releasing aminoluciferin, which is subsequently converted to light by luciferase. The intensity of the signal directly correlates with the levels of apoptosis. […] This destabilization reduces the levels of proteins essential for cancer cell survival, resulting in cumulative cellular stress, diminished proliferation, and enhanced cytotoxicity. […] This enhanced effect is likely due to the catalytic nature of the molecular glue degraders, offering promising potential for cancer treatment.
[…] After treatment, the medium was removed, and cells were gently washed with PBS to remove any residual media. Cells were then fixed by adding 100 μL of 100% cold methanol and incubating for 10 min. The methanol was aspirated, and the cells were allowed to air-dry fully. The cells were stained with 50 μL of 0.1% crystal violet for 10 min, after which excess crystal violet was aspirated and the cells were washed with PBS. To quantify cell viability, 100 μL of 33% acetic acid was added to each well to solubilize the bound dye. […] was then measured at 590 nm using Synergy H1 Hybrid Multi-Mode Microplate Reader (Biotek, Agilent). […]

MCF-10A = assay: Crystal violet viability assay in MCF-10A cells; type: cell-based; conditions: 10 nM or 10 μM, 48 h
Excerpt: as §3
RNF-126 recruiter for 48 h, measured using crystal violet. (B) Viability assay of MCF-10A cells
126 recruiter for 48 h, measured using crystal violet.
(1 picture or pasted object on this page, not shown here)

MCF-7 cells [4] = assay: Caspase-Glo 3/7 apoptosis assay; type: cell-based, human; conditions: MCF-7, 10 nM
Excerpt: as §3
MCF-7 cells were seeded in 96-well plates to 80% confluency and treated with synthesized compounds at four concentrations (1 nM–1 μM) for 24 and 48 h. Cell apoptosis was analyzed using the Caspase-Glo 3/7 Assay System (Promega, G8090). Each sample was incubated with Caspase-Glo 3/7 solution for 1 h, followed by luminescence measurement. Luminescence was measured […] using the Synergy H1 Hybrid Multi-Mode Microplate Reader (Biotek, Agilent). Cell apoptosis was calculated as the percent increase in luminescence of treated cells compared to untreated controls. All experiments were performed in triplicate.

MCF-7 spheroids = assay: 3D spheroid growth model, MCF-7; type: cell-based, human; conditions: 10 nM
Experimental: (§4) MDA-MB-231 and MCF-7 breast cancer cells were cultured in standard tissue culture plates using RPMI or DMEM media supplemented with 10% fetal bovine serum (FBS) and 1% penicillin–streptomycin until they reached approximately 80% confluency. Cells were washed with PBS and dissociated using 0.25% Trypsin-EDTA, followed by neutralization with complete medium. Viability was assessed via trypan blue exclusion, ensuring >90% viable cells. For spheroid formation, cells were seeded into ultralow attachment 96-well plates at a density of 5000 cells/well in 200 μL of complete medium. Plates were centrifuged at 1000 rpm for 5 min to promote aggregation and incubated at 37 °C in a humidified 5% CO2 atmosphere. Spheroid formation was monitored daily using an inverted microscope. Media exchanges or treatment additions were performed by carefully aspirating 100 μL of medium from each well and replacing it with an equal volume of fresh or treatment-containing medium. Differences in spheroid characteristics between the two cell lines were noted: MCF-7 cells, being epithelial and E-cadherin positive, formed compact, uniform spheroids at lower seeding densities (1000–5000 cells/well) over 3–5 days, whereas MDA-MB-231 cells, which lack E-cadherin, required higher densities (5000–10,000 cells/well) and formed looser aggregates typically within 2–4 days. All experiments were performed in duplicates. Surface area was calculated using Image View’s multipoint connection function.

MDA-MB-231 spheroids = assay: 3D spheroid growth model, MDA-MB-231; type: cell-based, human; conditions: 10 nM
Experimental: as §4

In the case of CCOC(=O)c1cc2cc(NC(=O)/C=C/C(=O)c3ccc(OC)cc3)ccc2[nH]1 [MG-HuR2], the “Bcl2 and FOXQ1 mRNA expression” value (Bcl2 and FOXQ1 mRNA) is reported as “decrease in the expression of both genes”, the “reduction of Bcl2 protein expression” value (Bcl2 [1]) is reported as 88% and the “reduction of Bcl2 protein expression” value (Bcl2 [2]) is reported as 45%. For the same molecule, the “cytotoxicity / cell viability (crystal violet)” value (MCF-7 cells [3]) was “exhibited cytotoxic activity”, the “cytotoxicity / viability in nontumorigenic cells” value (MCF-10A) was “No significant cytotoxicity or change in viability” and the “apoptosis (caspase 3/7)” value (MCF-7 cells [4]) was “significant increase in apoptosis”. The spheroid growth (MCF-7 spheroids) was “inhibited spheroid growth after 2 days” and the spheroid growth (MDA-MB-231 spheroids) was “inhibited spheroid growth after 2 days”.
